Assay results from PubChem BioAssay (NCI).
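Briefly, cells in 96-well plates were exposed to five compound concentrations for 48 h, and endpoints were estimated by linear interpolation. Abbreviation: GI50, concentration required for 50% inhibition of growth. The concentration for full growth arrest is given as TGI.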

Tests used:
Experiment in all cases: inhibition of tumour cell growth, NCI panel, 48 h
[1] = test system: NCI/ADR-RES ovarian
[2] = test system: SK-MEL-5 melanoma
[3] = test system: HOP-92 NSCLC
[4] = test system: UACC-257 melanoma
[5] = test system: K-562 leukemia
[6] = test system: OVCAR-4 ovarian
[7] = test system: DU-145 prostate
[8] = test system: SN12C renal
[9] = test system: RPMI-8226 leukemia
[10] = test system: 786-0 renal
[11] = test system: RXF 393 renal
[12] = test system: HCC-2998 colon
[13] = test system: OVCAR-8 ovarian
[14] = test system: SK-OV-3 ovarian
[15] = test system: BT-549 breast
[16] = test system: MDA-MB-231 breast
[17] = test system: HCT-15 colon
[18] = test system: SK-MEL-28 melanoma
[19] = test system: SK-MEL-2 melanoma
[20] = test system: HS 578T breast
[21] = test system: SNB-19 CNS
[22] = test system: LOX IMVI melanoma
[23] = test system: T-47D breast
[24] = test system: NCI-H226 lung
[25] = test system: HT29 colon
[26] = test system: SW-620 colon
[27] = test system: EKVX NSCLC
[28] = test system: MCF7 breast
[29] = test system: CAKI-1 renal
[30] = test system: SNB-75 CNS
[31] = test system: CCRF-CEM leukemia
[32] = test system: ACHN renal
[33] = test system: MOLT-4 leukemia
[34] = test system: U251 CNS
[35] = test system: SF-539 CNS
[36] = test system: SF-268 CNS
[37] = test system: A498 renal
[38] = test system: HL-60(TB) leukemia
[39] = test system: M14 melanoma
[40] = test system: MALME-3M melanoma
[41] = test system: IGROV1 ovarian
[42] = test system: SR leukemia
[43] = test system: COLO 205 colon
[44] = test system: MDA-MB-435
[45] = test system: NCI-H23 lung
[46] = test system: HCT-116 colon
[47] = test system: TK-10 renal
[48] = test system: UO-31 renal
[49] = test system: NCI-H460 lung
[50] = test system: OVCAR-5 ovarian
[51] = test system: SF-295 CNS
[52] = test system: KM12 colon
[53] = test system: HOP-62 NSCLC
[54] = test system: NCI-H522 lung
[55] = test system: A549 NSCLC
[56] = test system: OVCAR-3 ovarian
[57] = test system: PC-3 prostate
[58] = test system: UACC-62 melanoma
[59] = test system: MDA-N

## O=C1/C(=C/c2ccc(F)cc2)CN(C(=O)C(Cl)Cl)C/C1=C\c1ccc(F)cc1
[1]
  GI50: 327 nM
  TGI: 1710 nM
[2]
  GI50: 366 nM
  TGI: 1010 nM
[3]
  GI50: 1310 nM
  TGI: 3130 nM
[4]
  GI50: 450 nM
  TGI: 1620 nM
[5]
  GI50: 53.3 nM
  TGI: > 100000 nM
[6]
  GI50: 321 nM
  TGI: 1150 nM
[7]
  GI50: 671 nM
  TGI: 1740 nM
[8]
  GI50: 222 nM
  TGI: 556 nM
[9]
  GI50: 34.1 nM
  TGI: 324 nM
[10]
  GI50: 213 nM
  TGI: 499 nM
[11]
  GI50: 445 nM
  TGI: 968 nM
[12]
  GI50: 178 nM
  TGI: 351 nM
[13]
  GI50: 295 nM
  TGI: 1640 nM
[14]
  GI50: 884 nM
  TGI: 2200 nM
[15]
  GI50: 253 nM
  TGI: 810 nM
[16]
  GI50: 323 nM
  TGI: 1090 nM
[17]
  GI50: 145 nM
  TGI: 682 nM
[18]
  GI50: 257 nM
  TGI: 666 nM
[19]
  GI50: 940 nM
  TGI: 2900 nM
[20]
  GI50: 325 nM
  TGI: 1370 nM
[21]
  GI50: 287 nM
  TGI: 1250 nM
[22]
  GI50: 34.6 nM
  TGI: 97.4 nM
[23]
  GI50: 702 nM
  TGI: 3600 nM
[24]
  GI50: 4220 nM
  TGI: 22500 nM
[25]
  GI50: 181 nM
[26]
  GI50: 36.5 nM
  TGI: 119 nM
[27]
  GI50: 393 nM
  TGI: 1460 nM
[28]
  GI50: 112 nM
  TGI: 1090 nM
[29]
  GI50: 309 nM
  TGI: 1080 nM
[30]
  GI50: 1450 nM
  TGI: 2930 nM
[31]
  GI50: 136 nM
  TGI: > 24200 nM
[32]
  GI50: 240 nM
  TGI: 603 nM
[33]
  GI50: 309 nM
  TGI: > 100000 nM
[34]
  GI50: 106 nM
  TGI: 335 nM
[35]
  GI50: 269 nM
  TGI: 791 nM
[36]
  GI50: 328 nM
  TGI: 1470 nM
[37]
  GI50: 404 nM
  TGI: 1540 nM
[38]
  GI50: 229 nM
  TGI: 1550 nM
[39]
  GI50: 249 nM
  TGI: 758 nM
[40]
  GI50: 212 nM
  TGI: 528 nM
[41]
  GI50: 188 nM
  TGI: 410 nM
[42]
  GI50: 38.6 nM
  TGI: > 100000 nM
[43]
  GI50: 353 nM
  TGI: 1420 nM
[44]
  GI50: 212 nM
  TGI: 486 nM
[45]
  GI50: 259 nM
  TGI: 774 nM
[46]
  GI50: 67.3 nM
  TGI: 215 nM
[47]
  GI50: 670 nM
  TGI: 1960 nM
[48]
  GI50: 163 nM
  TGI: 327 nM
[49]
  GI50: 294 nM
  TGI: 878 nM
[50]
  GI50: 323 nM
  TGI: 1100 nM
[51]
  GI50: 230 nM
  TGI: 670 nM
[52]
  GI50: 107 nM
  TGI: 336 nM
[53]
  GI50: 407 nM
  TGI: 1510 nM
[54]
  GI50: 1500 nM
  TGI: 3270 nM
[55]
  GI50: 324 nM
  TGI: 1380 nM
[56]
  GI50: 262 nM
  TGI: 778 nM
[57]
  GI50: 250 nM
  TGI: 818 nM
[58]
  GI50: 237 nM
  TGI: 641 nM

## CSc1nc(-c2ccccc2)nc(C(C#N)C#N)n1
[1]
  TGI: > 100000 nM
[2]
  TGI: > 100000 nM
[3]
  TGI: > 100000 nM
[4]
  TGI: > 100000 nM
[6]
  TGI: > 100000 nM
[7]
  TGI: > 100000 nM
[8]
  TGI: > 100000 nM
[9]
  TGI: > 100000 nM
[10]
  TGI: > 100000 nM
[59]
  TGI: > 100000 nM
[11]
  TGI: > 100000 nM
[12]
  TGI: > 100000 nM
[13]
  TGI: > 100000 nM
[14]
  TGI: > 100000 nM
[16]
  TGI: > 100000 nM
[17]
  TGI: > 100000 nM
[18]
  TGI: > 100000 nM
[19]
  TGI: > 100000 nM
[20]
  TGI: > 100000 nM
[21]
  TGI: > 100000 nM
[22]
  TGI: > 100000 nM
[23]
  TGI: > 100000 nM
[24]
  TGI: > 100000 nM
[25]
  TGI: > 100000 nM
[26]
  TGI: > 100000 nM
[27]
  TGI: > 100000 nM
[28]
  TGI: > 100000 nM
[29]
  TGI: > 100000 nM
[30]
  TGI: > 100000 nM
[31]
  TGI: > 100000 nM
[32]
  TGI: > 100000 nM
[33]
  TGI: > 100000 nM
[34]
  TGI: > 100000 nM
[35]
  TGI: > 100000 nM
[36]
  TGI: > 100000 nM
[37]
  TGI: > 100000 nM
[38]
  TGI: > 100000 nM
[39]
  TGI: > 100000 nM
[40]
  TGI: > 100000 nM
[41]
  TGI: > 100000 nM
[43]
  TGI: > 100000 nM
[44]
  TGI: > 100000 nM
[45]
  TGI: > 100000 nM
[46]
  TGI: > 100000 nM
[47]
  TGI: > 100000 nM
[48]
  TGI: > 100000 nM
[50]
  TGI: > 100000 nM
[51]
  TGI: > 100000 nM
[52]
  TGI: > 100000 nM
[53]
  TGI: > 100000 nM
[54]
  TGI: > 100000 nM
[55]
  TGI: > 100000 nM
[56]
  TGI: > 100000 nM
[57]
  TGI: > 100000 nM
[58]
  TGI: > 100000 nM
